#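 GI50 marks 50% less growth. The concentration for full growth arrest is given as TGI.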
# Tests used:
# Assay in all cases: NCI anticancer screen, dose series, 384-well format
# PC-3 prostate = tested on: PC-3 prostate
# COLO 205 colon = tested on: COLO 205 colon
# SF-295 CNS = tested on: SF-295 CNS
# BT-549 breast = tested on: BT-549 breast
# NCI-H23 lung = tested on: NCI-H23 lung
# NCI-H460 NSCLC = tested on: NCI-H460 NSCLC
# SK-MEL-28 melanoma = tested on: SK-MEL-28 melanoma
# NCI-H322M lung = tested on: NCI-H322M lung
# DU-145 prostate = tested on: DU-145 prostate
# SK-OV-3 ovarian = tested on: SK-OV-3 ovarian
# OVCAR-5 ovarian = tested on: OVCAR-5 ovarian
# MDA-MB-435 melanoma = tested on: MDA-MB-435 melanoma
# M14 melanoma = tested on: M14 melanoma
# IGROV1 ovarian = tested on: IGROV1 ovarian
# OVCAR-8 ovarian = tested on: OVCAR-8 ovarian
# LOX IMVI melanoma = tested on: LOX IMVI melanoma
# SNB-75 CNS = tested on: SNB-75 CNS
# UO-31 renal = tested on: UO-31 renal
# MALME-3M melanoma = tested on: MALME-3M melanoma
# MOLT-4 leukemia = tested on: MOLT-4 leukemia
# SW-620 colon = tested on: SW-620 colon
# OVCAR-4 ovarian = tested on: OVCAR-4 ovarian
# RPMI-8226 leukemia = tested on: RPMI-8226 leukemia
# K-562 leukemia = tested on: K-562 leukemia
# A549 NSCLC = tested on: A549 NSCLC
# HOP-62 NSCLC = tested on: HOP-62 NSCLC
# UACC-62 melanoma = tested on: UACC-62 melanoma
# ACHN renal = tested on: ACHN renal
# 786-0 renal = tested on: 786-0 renal
# OVCAR-3 ovarian = tested on: OVCAR-3 ovarian
# KM12 colon = tested on: KM12 colon
# HS 578T breast = tested on: HS 578T breast
# T-47D breast = tested on: T-47D breast
# EKVX NSCLC = tested on: EKVX NSCLC
# MDA-MB-468 breast = tested on: MDA-MB-468 breast
# SK-MEL-2 melanoma = tested on: SK-MEL-2 melanoma
# RXF 393 renal = tested on: RXF 393 renal
# SR leukemia = tested on: SR leukemia
# SNB-19 CNS = tested on: SNB-19 CNS
# HT29 colon = tested on: HT29 colon
# NCI/ADR-RES ovarian = tested on: NCI/ADR-RES ovarian
# U251 glioblastoma = tested on: U251 glioblastoma
# HCT-15 colon = tested on: HCT-15 colon
# SF-268 CNS = tested on: SF-268 CNS
# CCRF-CEM leukemia = tested on: CCRF-CEM leukemia
# A498 renal = tested on: A498 renal
# NCI-H226 lung = tested on: NCI-H226 lung
# UACC-257 melanoma = tested on: UACC-257 melanoma
# HOP-92 NSCLC = tested on: HOP-92 NSCLC
# HCC-2998 colon = tested on: HCC-2998 colon
# TK-10 renal = tested on: TK-10 renal
# HCT-116 colon = tested on: HCT-116 colon
# HL-60(TB) leukemia = tested on: HL-60(TB) leukemia
# SN12C renal = tested on: SN12C renal
# NCI-H522 lung = tested on: NCI-H522 lung
# MDA-MB-231 breast = tested on: MDA-MB-231 breast
# SK-MEL-5 melanoma = tested on: SK-MEL-5 melanoma
# CAKI-1 renal = tested on: CAKI-1 renal
# SF-539 CNS = tested on: SF-539 CNS
smiles,measurement,setting,value
COc1cc2c(c(OC)n1)[C@]1(O)[C@H](O)[C@H](CN(C)C)[C@@H](c3ccccc3)[C@]1(c1ccc(C#N)cc1)O2,GI50,PC-3 prostate,< 0.01 µM
same,TGI,PC-3 prostate,2.26 µM
same,GI50,COLO 205 colon,< 0.01 µM
same,TGI,COLO 205 colon,0.12 µM
same,GI50,SF-295 CNS,0.0259 µM
same,TGI,SF-295 CNS,0.0819 µM
same,GI50,BT-549 breast,0.0237 µM
same,TGI,BT-549 breast,0.0957 µM
same,GI50,NCI-H23 lung,< 0.01 µM
same,TGI,NCI-H23 lung,0.0412 µM
same,GI50,NCI-H460 NSCLC,< 0.01 µM
same,TGI,NCI-H460 NSCLC,0.0233 µM
same,GI50,SK-MEL-28 melanoma,0.0196 µM
same,TGI,SK-MEL-28 melanoma,0.067 µM
same,GI50,NCI-H322M lung,0.0139 µM
same,TGI,NCI-H322M lung,0.0557 µM
same,GI50,DU-145 prostate,< 0.01 µM
same,TGI,DU-145 prostate,0.048 µM
same,GI50,SK-OV-3 ovarian,< 0.01 µM
same,TGI,SK-OV-3 ovarian,1.31 µM
same,GI50,OVCAR-5 ovarian,0.011 µM
same,TGI,OVCAR-5 ovarian,0.058 µM
same,GI50,MDA-MB-435 melanoma,< 0.01 µM
same,TGI,MDA-MB-435 melanoma,0.583 µM
same,GI50,M14 melanoma,< 0.01 µM
same,TGI,M14 melanoma,0.0382 µM
same,GI50,IGROV1 ovarian,< 0.01 µM
same,TGI,IGROV1 ovarian,13.9 µM
same,GI50,OVCAR-8 ovarian,0.0208 µM
same,TGI,OVCAR-8 ovarian,10.7 µM
same,GI50,LOX IMVI melanoma,< 0.01 µM
same,TGI,LOX IMVI melanoma,0.0205 µM
same,GI50,SNB-75 CNS,0.016 µM
same,TGI,SNB-75 CNS,0.36 µM
same,GI50,UO-31 renal,0.0213 µM
same,TGI,UO-31 renal,0.0916 µM
same,GI50,MALME-3M melanoma,< 0.01 µM
same,TGI,MALME-3M melanoma,0.0611 µM
same,GI50,MOLT-4 leukemia,< 0.01 µM
same,TGI,MOLT-4 leukemia,< 0.01 µM
same,GI50,SW-620 colon,< 0.01 µM
same,TGI,SW-620 colon,10 µM
same,GI50,OVCAR-4 ovarian,< 0.01 µM
same,TGI,OVCAR-4 ovarian,0.0434 µM
same,GI50,RPMI-8226 leukemia,< 0.01 µM
same,TGI,RPMI-8226 leukemia,< 0.01 µM
same,GI50,K-562 leukemia,< 0.01 µM
same,TGI,K-562 leukemia,10.7 µM
same,GI50,A549 NSCLC,0.012 µM
same,TGI,A549 NSCLC,16 µM
same,GI50,HOP-62 NSCLC,< 0.01 µM
same,TGI,HOP-62 NSCLC,0.0483 µM
same,GI50,UACC-62 melanoma,0.0119 µM
same,TGI,UACC-62 melanoma,0.0575 µM
same,GI50,ACHN renal,0.0102 µM
same,TGI,ACHN renal,0.0483 µM
same,GI50,786-0 renal,0.0186 µM
same,TGI,786-0 renal,0.0776 µM
same,GI50,OVCAR-3 ovarian,< 0.01 µM
same,TGI,OVCAR-3 ovarian,0.0282 µM
same,GI50,KM12 colon,< 0.01 µM
same,TGI,KM12 colon,0.0722 µM
same,GI50,HS 578T breast,< 0.01 µM
same,TGI,HS 578T breast,0.0406 µM
same,GI50,T-47D breast,< 0.01 µM
same,TGI,T-47D breast,0.0533 µM
same,GI50,EKVX NSCLC,< 0.01 µM
same,TGI,EKVX NSCLC,0.0463 µM
same,GI50,MDA-MB-468 breast,< 0.01 µM
same,TGI,MDA-MB-468 breast,0.0231 µM
same,GI50,SK-MEL-2 melanoma,< 0.01 µM
same,TGI,SK-MEL-2 melanoma,0.0413 µM
same,GI50,RXF 393 renal,< 0.01 µM
same,TGI,RXF 393 renal,0.0218 µM
same,GI50,SR leukemia,0.0117 µM
same,TGI,SR leukemia,0.0328 µM
same,GI50,SNB-19 CNS,0.0124 µM
same,TGI,SNB-19 CNS,0.119 µM
same,GI50,HT29 colon,0.0222 µM
same,TGI,HT29 colon,15.6 µM
same,GI50,NCI/ADR-RES ovarian,0.138 µM
same,TGI,NCI/ADR-RES ovarian,3.27 µM
same,GI50,U251 glioblastoma,0.0126 µM
same,TGI,U251 glioblastoma,0.209 µM
same,GI50,HCT-15 colon,0.0131 µM
same,TGI,HCT-15 colon,0.0993 µM
same,GI50,SF-268 CNS,0.0157 µM
same,TGI,SF-268 CNS,0.175 µM
same,GI50,CCRF-CEM leukemia,< 0.01 µM
same,TGI,CCRF-CEM leukemia,0.0178 µM
same,GI50,A498 renal,< 0.01 µM
same,TGI,A498 renal,0.266 µM
same,GI50,NCI-H226 lung,< 0.01 µM
same,TGI,NCI-H226 lung,0.0575 µM
same,GI50,UACC-257 melanoma,0.0253 µM
same,TGI,UACC-257 melanoma,0.42 µM
same,GI50,HOP-92 NSCLC,0.0195 µM
same,TGI,HOP-92 NSCLC,0.0787 µM
same,GI50,HCC-2998 colon,< 0.01 µM
same,TGI,HCC-2998 colon,0.0285 µM
same,GI50,TK-10 renal,0.0137 µM
same,TGI,TK-10 renal,0.0464 µM
same,GI50,HCT-116 colon,< 0.01 µM
same,TGI,HCT-116 colon,0.026 µM
same,GI50,HL-60(TB) leukemia,< 0.01 µM
same,TGI,HL-60(TB) leukemia,< 0.01 µM
same,GI50,SN12C renal,< 0.01 µM
same,TGI,SN12C renal,0.0546 µM
same,GI50,NCI-H522 lung,< 0.01 µM
same,TGI,NCI-H522 lung,0.0337 µM
same,GI50,MDA-MB-231 breast,0.0146 µM
same,TGI,MDA-MB-231 breast,0.0948 µM
same,GI50,SK-MEL-5 melanoma,< 0.01 µM
same,TGI,SK-MEL-5 melanoma,0.0414 µM
same,GI50,CAKI-1 renal,< 0.01 µM
same,TGI,CAKI-1 renal,0.041 µM
same,GI50,SF-539 CNS,< 0.01 µM
same,TGI,SF-539 CNS,0.0201 µM

# Reference: PubChem BioAssay (NCI)
